This note sets out measurements from patent publication US9567347B2, “Use of small molecule inhibitors targeting the interaction between RAC GTPase and p67(phox)” (CHILDREN'S HOSPITAL MEDICAL CENTER, priority 2012, dated 2017).

The structures appear in SMILES notation. pKd: −log10 of the molar value.

Experiment [1] addresses T1, p67^phox recombinant protein (1-200) (Homo sapiens, UniProt P19878).
T1 construct: using the pET30-HIS p67(1-212) plasmid; His; made in house; host or cells: E. coli BL21(DE3)
T1 sequence (P19878 1-212): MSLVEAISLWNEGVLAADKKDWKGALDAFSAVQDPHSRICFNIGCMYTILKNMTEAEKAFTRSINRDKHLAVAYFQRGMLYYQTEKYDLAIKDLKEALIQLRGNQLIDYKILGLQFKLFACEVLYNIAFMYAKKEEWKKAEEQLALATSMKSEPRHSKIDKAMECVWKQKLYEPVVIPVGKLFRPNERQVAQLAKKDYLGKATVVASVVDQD
The experiment is described as follows: microscale thermophoresis binding to p67phox. Here is the method: The p67^phox protein was expressed in BL21(DE3) bacteria (Stratagene) using the pET30-HIS p67(1-212) plasmid. Protein was purified using the QIAexpress Ni-NTA kit (Qiagen) or the GST Bind Resin Chromatography Kit (Novagen) for RacV12 and RacWT proteins. Mutagenesis was carried out using the Quick Change Lightening Site Directed Mutagenesis Kit (Stratagene).
Proteins were labeled for microscale thermophoresis using the Monolith NT Protein Labeling Kit Red (Nano Temper Technologies) as recommended by the manufacturer. Binding reactions were carried out using the Monolith NT. 115 (Nano Temper Technologies). Binding data was analyzed using Graphpad Prizm to estimate Kd values. The arbitrary fluorescence value from the thermophoresis plots for the smallest compound titration was subtracted from every other data point (Delta depletion) prior to normalization to a Vmax of 100. In thermophoresis plots where there was no binding, a curve could not be fit and therefore no Vmax could be assigned. In these instances the highest delta depletion value was set to 100 and all data were normalized accordingly.
To test the ability of compounds identified by preliminary screening to bind to the p67^phox protein in the N-terminal 200 amino acid region involved in Rac1-GTP interaction, microscale thermophoresis was employed. This technology probes for fluorescent changes in the hydration shell of molecules in order to measure protein-protein or protein small molecule interactions with high sensitivity in near-native conditions.
On the technique in general: Microscale thermophoresis detects binding through changes in fluorescence in a small temperature gradient.

Experiment [2] relates to primary murine neutrophils. The experiment is described as follows: F-actin immunofluorescence, polarization upon fMLP stimulation. As to conditions: 10 μM; untreated control about 80%. Format: cell-based, mouse. As to the method: Cells were pretreated with compound for 40 minutes prior to wash, and resuspended in HBSS with compound. Cells were allowed to adhere to fibronectin (Sigma Aldrich) coated glass coverslips (15 min) and then stimulated with 100 nM fMLP (3 min). Coverslips were then fixed with 3.7% paraformaldehyde (Sigma Aldrich) and then staining for […] was performed with rhodamine phalloidin per the manufacturer's instructions (Molecular Probes). Another method of addressing Rac-signaling specificity in neutrophils is by monitoring their ability to polarize actin to the leading edge upon fMLP stimulation. Neither Phox-I1, Phox-I2, nor an analog 13 (all at 10 μM), were able to block the Rac-mediated dynamic process of F-actin polarization to the leading edge of primary murine neutrophils as observed by F-actin immunofluorescence imaging (FIG. 4C, left panel). F-actin polarization was evident in about 80% of each treatment group of cells as in the control, untreated cells (FIG. 4C, right panel).

Experiment [3] concerns dHL-60 cells. The experiment is described as follows: antioxidant (ROS scavenger) test in dHL-60 cells pre-stimulated with fMLP. Format: cell-based, human. As to conditions: fMLP 30 min prior to treatment. Here is the method:
(A) Apoptosis analysis by FACS of HL-60 cells treated with compound or vehicle control for 2 hours prior to 7-AAD and Annexin V staining. (B) HL-60 cells from A were harvested and lysates were immunoblotted for levels of pPAK, and actin was used as a control for loading. (C) F-actin reorganization in freshly isolated fMLP-stimulated primary murine neutrophils was analyzed. […] Cells were exposed to a 10 μM dose of Phox-I1, Phox-I2, and Analog 13, and 200 nM nocodazole. (D) The effect of Phox-I on NOX4 mediated ROS production was tested in primary murine neutrophils transfected with a NOX4 expressing plasmid. 10 μM Phox-I1 was applied to the cells for 30 min prior to ROS assay by luminol chemiluminescence in the presence of HRP. The fMLP-stimulated ROS activity in the presence or absence of 10 uM Phox-I1 was measured in parallel. (E) The antioxidant abilities of these lead compounds were tested by prestimulating dHL-60 cells with fMLP for 30 minutes prior to treatment with Phox-I1 or Phox-I2. Levels of superoxide were analyzed by DCFDA assay and FACS. NAC, apocyanin, DPI, and NSC23766 treated cells served as controls. […] (G) For stability assay, DMSO-differentiated HL-60 cells were treated with 20 μM dose of compound for the indicated time period prior to fMLP stimulation and DCFDA ROS production assay by FACS analysis.
Phox-I1 was then applied to primary murine neutrophils expressing the constitutively active NOX4. […] To further rule out that Phox-I1 and Phox-I2 may simply act as scavengers of ROS, dHL-60 cells were pre-stimulated with fMLP for 30 min prior to treatment with Phox-I1 or Phox-I2.

With `O=[N+]([O-])c1cccc(C2Nc3ccc([N+](=O)[O-])cc3C3C=CCC32)c1` (stereo not shown) [Phox-I2], in experiment [1], the pKd (in general, the negative decadic logarithm of the Kd, by convention in mol/L) is around 6.82 and the “binding to p67^phox” value is listed as “high affinity”. Also, in experiment [2], the “cells with F-actin polarization” value was “about 80%”. Besides, in experiment [3], the “levels of superoxide already produced” value is reported as “do not affect”.

Consider `COc1ccc2c(c1)C1C=C(c3ccccc3)NN1C(c1cccc([N+](=O)[O-])c1)O2` (stereo not shown) [Phox-I1], for which the pKd in experiment [1] is around 7.00. For the same molecule, in experiment [2], the “cells with F-actin polarization” value is on record as “about 80%”. The “levels of superoxide already produced” value in experiment [3] was “do not affect”.
